In ChEMBL document CHEMBL1201862, “PubChem BioAssay data set” (2004):
Calls of active or inactive are those of the source.

Columns and labels:
[1] = molecular target: Glucose-6-phosphate 1-dehydrogenase (Homo sapiens, UniProt P11413); experiment: human G6PD enzyme inhibitors, dose response, selectivity assay for P. falciparum G6PD inhibitor project, biochemical, fluorescence (AID 504792); type: functional
Hexokinase HKDC1 = molecular target: T1, Hexokinase HKDC1 (Homo sapiens, UniProt Q2TB90); experiment: HKDC1 hexokinase activators, dose response, biochemical, W721R variant (AID 504730); type: functional
T1 sequence (Q2TB90 whole entry): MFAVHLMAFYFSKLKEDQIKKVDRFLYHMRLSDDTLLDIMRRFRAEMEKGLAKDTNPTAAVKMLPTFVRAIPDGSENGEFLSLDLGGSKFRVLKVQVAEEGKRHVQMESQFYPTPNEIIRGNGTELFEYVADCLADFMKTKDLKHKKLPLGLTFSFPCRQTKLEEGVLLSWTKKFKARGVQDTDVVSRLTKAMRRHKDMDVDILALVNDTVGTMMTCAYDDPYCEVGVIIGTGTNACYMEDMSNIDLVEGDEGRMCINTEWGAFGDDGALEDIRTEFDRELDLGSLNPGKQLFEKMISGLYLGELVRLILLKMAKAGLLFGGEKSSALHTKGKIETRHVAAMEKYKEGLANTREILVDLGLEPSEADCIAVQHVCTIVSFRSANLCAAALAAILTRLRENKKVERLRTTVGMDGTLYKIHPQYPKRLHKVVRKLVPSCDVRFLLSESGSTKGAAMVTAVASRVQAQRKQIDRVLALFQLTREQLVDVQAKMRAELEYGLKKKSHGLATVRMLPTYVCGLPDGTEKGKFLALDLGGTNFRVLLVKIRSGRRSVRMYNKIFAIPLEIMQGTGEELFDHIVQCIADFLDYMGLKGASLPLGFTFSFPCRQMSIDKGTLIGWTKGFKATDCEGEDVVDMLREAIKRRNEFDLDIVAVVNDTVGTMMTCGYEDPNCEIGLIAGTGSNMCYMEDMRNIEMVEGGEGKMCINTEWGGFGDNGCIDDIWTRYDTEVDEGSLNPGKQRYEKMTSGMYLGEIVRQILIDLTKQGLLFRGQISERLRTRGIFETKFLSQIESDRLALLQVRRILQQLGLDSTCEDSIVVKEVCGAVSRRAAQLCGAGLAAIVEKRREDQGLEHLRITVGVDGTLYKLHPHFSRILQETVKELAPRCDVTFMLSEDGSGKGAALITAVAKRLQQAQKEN

Hexokinase-1 = Hexokinase-1 (Homo sapiens, UniProt P19367); experiment: hexokinase 1 activators, dose response, selectivity assay for HKDC1 activator project, biochemical (AID 504762); type: functional
[2] = molecular target: T2, G-protein coupled receptor 35 (Homo sapiens, UniProt Q9HC97); experiment: SAR analysis of Agonists of the GPR35 Receptor using an Image-Based Assay - Set 4. [Related pubchem assays (depositor defined):AID2013, AID2026]; type: functional
Cannabinoid receptor 1 [3] = molecular target: T3, Cannabinoid receptor 1 (Homo sapiens, UniProt P21554); experiment: SAR analysis of agonists of the Cannabinoid Receptor 1 using an Image-Based Assay - Set 4. [Related pubchem assays (depositor defined):AID2013, AID2026]; type: functional
[4] = molecular target: T2, G-protein coupled receptor 35; experiment: SAR analysis of Antagonists of the GPR35 Receptor using an Image-Based Assay - Set 6. [Related pubchem assays (depositor defined):AID2013, AID2026]; type: functional
Cannabinoid receptor 1 [5] = molecular target: T3, Cannabinoid receptor 1; experiment: SAR analysis of antagonists of the Cannabinoid Receptor 1 using an Image-Based Assay - Set 4. [Related pubchem assays (depositor defined):AID2013, AID2026]; type: functional
[6] = molecular target: G-protein coupled receptor 55 (Homo sapiens, UniProt Q9Y2T6); experiment: SAR Analysis of Selective Antagonists of GPR55 using an Image-Based Assay - Set 4. [Related pubchem assays (depositor defined):AID2013, AID2026]; type: functional;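 note: antagonism of response to 5 µM lysophosphatidylinositol agonist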
Cannabinoid receptor 2 [7] = molecular target: T4, Cannabinoid receptor 2 (Homo sapiens, UniProt P34972); experiment: SAR analysis of antagonists of the Cannabinoid Receptor 2 using an Image-Based Assay - Set 3. [Related pubchem assays (depositor defined):AID2013, AID2026]; type: functional
Cannabinoid receptor 2 [8] = molecular target: T4, Cannabinoid receptor 2; experiment: SAR analysis of agonists of the Cannabinoid Receptor 2 using an Image-Based Assay - Set 3. [Related pubchem assays (depositor defined):AID2013, AID2026]; type: functional
Coagulation factor XII = molecular target: T5, Coagulation factor XII (Homo sapiens, UniProt P00748); experiment: Factor XIIa Dose Response Confirmation from Single Well HTS. [Related pubchem assays (depositor defined):AID701]; type: functional
T5 sequence (P00748 whole entry): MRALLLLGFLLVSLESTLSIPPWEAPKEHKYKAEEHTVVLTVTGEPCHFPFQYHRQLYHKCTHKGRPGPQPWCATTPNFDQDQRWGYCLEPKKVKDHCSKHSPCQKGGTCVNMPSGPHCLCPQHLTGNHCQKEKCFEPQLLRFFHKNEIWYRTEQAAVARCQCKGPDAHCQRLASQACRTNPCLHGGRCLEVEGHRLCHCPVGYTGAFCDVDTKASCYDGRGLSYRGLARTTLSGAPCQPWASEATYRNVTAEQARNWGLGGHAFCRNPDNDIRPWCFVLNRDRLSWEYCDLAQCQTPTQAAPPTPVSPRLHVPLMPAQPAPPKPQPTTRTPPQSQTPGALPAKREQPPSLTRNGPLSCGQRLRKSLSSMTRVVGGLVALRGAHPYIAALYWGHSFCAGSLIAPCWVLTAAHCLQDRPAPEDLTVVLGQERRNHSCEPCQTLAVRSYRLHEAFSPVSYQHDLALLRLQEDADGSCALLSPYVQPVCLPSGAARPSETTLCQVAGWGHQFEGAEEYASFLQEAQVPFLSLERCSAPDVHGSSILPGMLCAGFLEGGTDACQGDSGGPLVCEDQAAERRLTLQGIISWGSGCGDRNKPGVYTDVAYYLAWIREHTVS

Ion channel NompC = Ion channel NompC (Danio rerio, UniProt Q7T1G6); experiment: Dose response cell-based high-throughput screening assay for agonists of the transient receptor potential channel N1 (TRPN1). [Related pubchem assays (depositor defined):AID1424, AID1448]; type: functional
Mucolipin-3 = molecular target: T6, Mucolipin-3 (Homo sapiens, UniProt Q8TDD5); experiment: Fluorescence counterscreen assay for […] agonists: dose response cell-based high-throughput screening assay to identify agonists of the transient receptor potential channel ML3 (TRPML3). [Related pubchem assays: 1424, 1448 ]; type: functional
T6 sequence (Q8TDD5 whole entry): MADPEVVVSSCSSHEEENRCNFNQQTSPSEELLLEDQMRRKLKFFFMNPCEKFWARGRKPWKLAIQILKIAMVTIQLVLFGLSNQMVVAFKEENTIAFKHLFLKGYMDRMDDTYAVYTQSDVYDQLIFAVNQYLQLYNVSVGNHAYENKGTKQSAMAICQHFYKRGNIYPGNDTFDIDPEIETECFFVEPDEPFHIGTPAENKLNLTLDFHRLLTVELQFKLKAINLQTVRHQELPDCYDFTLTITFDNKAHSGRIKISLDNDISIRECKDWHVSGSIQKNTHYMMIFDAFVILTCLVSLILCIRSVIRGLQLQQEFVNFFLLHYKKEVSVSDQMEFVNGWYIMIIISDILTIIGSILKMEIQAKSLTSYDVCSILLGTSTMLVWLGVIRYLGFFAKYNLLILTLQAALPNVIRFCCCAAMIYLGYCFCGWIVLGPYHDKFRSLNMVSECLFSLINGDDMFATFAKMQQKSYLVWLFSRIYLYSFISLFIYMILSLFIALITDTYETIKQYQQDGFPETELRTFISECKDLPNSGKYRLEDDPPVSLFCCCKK

[9] = molecular target: T7, Heat shock factor protein 1 (Mus musculus, UniProt P38532); experiment: HSF1 potentiators in luciferase reporter cells, confirmation, cell-based, NIH3T3, luminescence, dose retest (AID 435004); type: functional;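 note: stress induced by proteasome inhibitor MG132 added 30 min after compound; luciferase reporter driven by HSF1 response element in NIH3T3 cells; actives raise luminescence as potentiators of the MG132 stress response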
T7 sequence (P38532 whole entry): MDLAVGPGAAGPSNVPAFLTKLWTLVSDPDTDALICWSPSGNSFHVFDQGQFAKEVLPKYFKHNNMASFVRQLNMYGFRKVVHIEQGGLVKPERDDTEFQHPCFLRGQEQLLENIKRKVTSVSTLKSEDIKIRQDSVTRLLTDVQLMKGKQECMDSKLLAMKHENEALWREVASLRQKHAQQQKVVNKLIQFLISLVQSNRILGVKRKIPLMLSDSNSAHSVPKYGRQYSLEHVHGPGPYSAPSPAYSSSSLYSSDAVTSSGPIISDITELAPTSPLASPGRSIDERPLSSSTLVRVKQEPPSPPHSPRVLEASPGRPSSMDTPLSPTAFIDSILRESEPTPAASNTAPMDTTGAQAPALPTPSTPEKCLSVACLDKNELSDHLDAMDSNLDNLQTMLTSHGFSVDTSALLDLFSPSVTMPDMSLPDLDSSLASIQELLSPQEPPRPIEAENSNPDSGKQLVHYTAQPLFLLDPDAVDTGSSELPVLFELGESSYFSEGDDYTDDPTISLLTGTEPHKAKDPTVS

[10] = molecular target: UDP-galactopyranose mutase (Mycobacterium tuberculosis, UniProt P9WIQ1); experiment: Inhibitors of Mycobacterium tuberculosis UDP-galactopyranose mutase (UGM) enzyme Measured in Biochemical System Using Plate Reader - 2105-02_Inhibitor_Dose_CherryPick_Activity. [Related pubchem assays (depositor defined):AID504439]
cells = type: functional
BJ = experiment: cytotoxicity toward Ras-transformed BJeLR fibroblasts, dose response, cell-based, alamar blue fluorescence, cherrypicked samples (AID 2631); type: functional; details: Homo sapiens;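 note: confirmatory dose-response assay in RAS-dependent BJ fibroblasts engineered with TERT, LT and ST, with cytotoxicity read by fluorescence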
[11] = molecular target: Kappa-type opioid receptor (Homo sapiens, UniProt P41145); experiment: SAR analysis of small molecule agonists of the kappa opioid receptor via a luminescent beta-arrestin assay - Set 3. [Related pubchem assays (depositor defined):AID1777, AID1785, AID1786, AID1966, AID2133, AID2136, AID2284, AID2500]; type: functional

T4 sequence (P34972 whole entry): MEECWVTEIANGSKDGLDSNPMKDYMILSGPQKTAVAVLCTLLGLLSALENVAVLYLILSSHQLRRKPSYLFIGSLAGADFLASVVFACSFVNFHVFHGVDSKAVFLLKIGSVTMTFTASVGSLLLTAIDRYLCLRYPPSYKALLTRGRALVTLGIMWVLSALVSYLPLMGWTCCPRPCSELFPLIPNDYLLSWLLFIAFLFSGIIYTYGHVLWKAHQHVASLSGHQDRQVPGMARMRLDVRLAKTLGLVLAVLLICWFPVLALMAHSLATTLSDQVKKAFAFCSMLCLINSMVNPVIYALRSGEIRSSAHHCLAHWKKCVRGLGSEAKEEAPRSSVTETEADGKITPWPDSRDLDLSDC
T2 sequence (Q9HC97 whole entry): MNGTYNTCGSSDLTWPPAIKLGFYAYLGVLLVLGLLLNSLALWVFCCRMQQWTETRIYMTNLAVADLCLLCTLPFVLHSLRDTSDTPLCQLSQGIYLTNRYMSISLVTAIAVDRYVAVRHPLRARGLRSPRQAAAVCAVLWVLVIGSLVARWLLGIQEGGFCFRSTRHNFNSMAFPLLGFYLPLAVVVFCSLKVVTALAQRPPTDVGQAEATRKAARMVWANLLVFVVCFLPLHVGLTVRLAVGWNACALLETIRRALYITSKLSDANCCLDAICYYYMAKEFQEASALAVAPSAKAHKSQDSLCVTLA
T3 sequence (P21554 whole entry): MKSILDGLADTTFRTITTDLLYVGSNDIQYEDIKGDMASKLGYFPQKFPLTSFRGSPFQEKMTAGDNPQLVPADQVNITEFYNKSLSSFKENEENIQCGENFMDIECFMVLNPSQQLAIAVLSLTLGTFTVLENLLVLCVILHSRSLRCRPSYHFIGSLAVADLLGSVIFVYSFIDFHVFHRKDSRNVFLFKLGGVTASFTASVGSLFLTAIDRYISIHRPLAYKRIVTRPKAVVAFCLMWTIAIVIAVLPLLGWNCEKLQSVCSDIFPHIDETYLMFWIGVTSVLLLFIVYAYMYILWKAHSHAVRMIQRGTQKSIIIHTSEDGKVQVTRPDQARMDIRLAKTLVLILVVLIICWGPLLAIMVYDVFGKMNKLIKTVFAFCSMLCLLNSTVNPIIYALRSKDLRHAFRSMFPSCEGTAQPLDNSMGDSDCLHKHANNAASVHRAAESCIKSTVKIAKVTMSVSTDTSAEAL
Hexokinase-1, sequence (P19367 whole entry): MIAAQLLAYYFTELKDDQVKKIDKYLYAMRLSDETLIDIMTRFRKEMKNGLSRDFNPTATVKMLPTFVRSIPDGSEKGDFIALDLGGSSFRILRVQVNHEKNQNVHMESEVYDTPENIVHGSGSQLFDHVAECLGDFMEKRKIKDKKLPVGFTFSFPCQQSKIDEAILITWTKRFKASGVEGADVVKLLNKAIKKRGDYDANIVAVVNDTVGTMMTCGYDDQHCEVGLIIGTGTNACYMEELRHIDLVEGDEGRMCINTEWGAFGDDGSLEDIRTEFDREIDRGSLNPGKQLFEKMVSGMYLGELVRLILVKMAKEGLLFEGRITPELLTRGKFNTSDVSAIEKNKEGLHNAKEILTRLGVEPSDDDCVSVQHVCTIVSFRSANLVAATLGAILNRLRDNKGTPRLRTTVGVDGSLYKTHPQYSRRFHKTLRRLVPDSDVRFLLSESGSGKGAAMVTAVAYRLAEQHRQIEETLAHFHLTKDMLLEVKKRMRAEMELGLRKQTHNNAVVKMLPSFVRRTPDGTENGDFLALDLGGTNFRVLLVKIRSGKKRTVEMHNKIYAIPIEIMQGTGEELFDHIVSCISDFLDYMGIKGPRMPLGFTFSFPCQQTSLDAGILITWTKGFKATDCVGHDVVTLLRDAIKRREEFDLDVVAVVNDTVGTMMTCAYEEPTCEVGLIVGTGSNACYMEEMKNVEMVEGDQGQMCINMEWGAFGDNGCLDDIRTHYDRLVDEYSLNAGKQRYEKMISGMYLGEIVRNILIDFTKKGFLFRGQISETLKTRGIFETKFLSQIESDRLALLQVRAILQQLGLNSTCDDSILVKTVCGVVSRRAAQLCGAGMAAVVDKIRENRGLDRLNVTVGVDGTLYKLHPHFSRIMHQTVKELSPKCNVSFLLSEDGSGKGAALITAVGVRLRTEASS
G-protein coupled receptor 55, sequence (Q9Y2T6 whole entry): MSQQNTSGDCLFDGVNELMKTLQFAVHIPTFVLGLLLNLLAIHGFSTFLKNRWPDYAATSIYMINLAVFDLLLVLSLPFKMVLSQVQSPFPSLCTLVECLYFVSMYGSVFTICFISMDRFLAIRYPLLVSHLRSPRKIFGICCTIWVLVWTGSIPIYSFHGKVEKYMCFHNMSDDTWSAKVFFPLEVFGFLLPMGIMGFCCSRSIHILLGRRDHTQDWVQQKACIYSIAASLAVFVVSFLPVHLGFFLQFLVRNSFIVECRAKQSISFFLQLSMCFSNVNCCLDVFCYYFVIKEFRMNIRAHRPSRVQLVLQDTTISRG
Ion channel NompC, sequence (Q7T1G6 whole entry): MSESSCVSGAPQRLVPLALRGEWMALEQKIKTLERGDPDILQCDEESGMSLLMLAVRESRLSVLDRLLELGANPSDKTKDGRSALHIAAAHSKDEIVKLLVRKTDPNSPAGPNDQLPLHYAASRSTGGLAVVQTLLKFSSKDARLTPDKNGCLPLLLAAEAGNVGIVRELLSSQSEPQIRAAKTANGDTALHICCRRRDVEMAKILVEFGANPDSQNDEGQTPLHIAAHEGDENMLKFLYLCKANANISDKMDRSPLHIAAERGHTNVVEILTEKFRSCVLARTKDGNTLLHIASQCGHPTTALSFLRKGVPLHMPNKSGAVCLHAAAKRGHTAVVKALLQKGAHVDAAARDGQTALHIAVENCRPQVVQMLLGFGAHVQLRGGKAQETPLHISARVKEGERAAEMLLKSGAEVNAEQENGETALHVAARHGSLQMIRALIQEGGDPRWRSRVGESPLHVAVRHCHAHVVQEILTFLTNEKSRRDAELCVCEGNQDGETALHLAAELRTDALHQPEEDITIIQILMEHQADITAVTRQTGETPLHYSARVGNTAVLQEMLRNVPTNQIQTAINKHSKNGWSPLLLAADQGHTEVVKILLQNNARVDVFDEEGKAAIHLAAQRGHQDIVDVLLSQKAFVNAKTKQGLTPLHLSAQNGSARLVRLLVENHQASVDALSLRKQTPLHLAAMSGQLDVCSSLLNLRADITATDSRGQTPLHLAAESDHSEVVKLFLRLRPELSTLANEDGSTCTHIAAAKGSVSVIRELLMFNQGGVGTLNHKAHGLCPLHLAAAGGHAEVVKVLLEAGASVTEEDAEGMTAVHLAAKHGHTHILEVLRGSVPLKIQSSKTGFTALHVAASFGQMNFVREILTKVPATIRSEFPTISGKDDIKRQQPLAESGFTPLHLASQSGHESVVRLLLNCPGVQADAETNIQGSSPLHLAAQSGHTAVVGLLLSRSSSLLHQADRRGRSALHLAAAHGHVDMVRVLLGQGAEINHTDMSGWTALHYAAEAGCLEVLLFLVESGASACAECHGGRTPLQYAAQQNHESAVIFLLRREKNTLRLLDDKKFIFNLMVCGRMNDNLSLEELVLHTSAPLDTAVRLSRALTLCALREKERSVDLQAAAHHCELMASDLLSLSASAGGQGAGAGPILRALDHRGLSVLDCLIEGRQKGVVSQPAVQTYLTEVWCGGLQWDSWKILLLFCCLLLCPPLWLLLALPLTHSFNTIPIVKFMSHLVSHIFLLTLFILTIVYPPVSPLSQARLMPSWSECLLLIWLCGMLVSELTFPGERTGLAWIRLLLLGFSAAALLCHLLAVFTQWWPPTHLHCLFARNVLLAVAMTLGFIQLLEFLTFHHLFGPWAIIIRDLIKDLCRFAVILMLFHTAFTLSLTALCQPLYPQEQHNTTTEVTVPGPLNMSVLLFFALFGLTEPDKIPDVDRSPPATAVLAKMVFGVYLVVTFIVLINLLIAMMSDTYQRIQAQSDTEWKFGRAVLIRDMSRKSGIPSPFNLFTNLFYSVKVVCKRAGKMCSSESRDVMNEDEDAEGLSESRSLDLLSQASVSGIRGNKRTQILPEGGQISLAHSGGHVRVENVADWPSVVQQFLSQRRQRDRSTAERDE
Glucose-6-phosphate 1-dehydrogenase, sequence (P11413 whole entry): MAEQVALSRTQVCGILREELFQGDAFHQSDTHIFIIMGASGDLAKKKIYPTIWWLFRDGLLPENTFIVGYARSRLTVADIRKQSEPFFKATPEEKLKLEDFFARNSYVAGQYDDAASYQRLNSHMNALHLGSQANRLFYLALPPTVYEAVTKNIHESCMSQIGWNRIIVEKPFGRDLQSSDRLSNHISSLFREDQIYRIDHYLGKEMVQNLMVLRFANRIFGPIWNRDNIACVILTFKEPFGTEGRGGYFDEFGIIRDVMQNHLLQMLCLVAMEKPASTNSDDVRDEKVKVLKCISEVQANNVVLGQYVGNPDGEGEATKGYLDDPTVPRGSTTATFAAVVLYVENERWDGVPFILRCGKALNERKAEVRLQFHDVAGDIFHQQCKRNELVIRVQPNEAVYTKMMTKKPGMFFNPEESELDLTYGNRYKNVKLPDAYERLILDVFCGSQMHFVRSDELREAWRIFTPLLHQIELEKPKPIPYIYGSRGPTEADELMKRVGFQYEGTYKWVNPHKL
UDP-galactopyranose mutase, sequence (P9WIQ1 whole entry): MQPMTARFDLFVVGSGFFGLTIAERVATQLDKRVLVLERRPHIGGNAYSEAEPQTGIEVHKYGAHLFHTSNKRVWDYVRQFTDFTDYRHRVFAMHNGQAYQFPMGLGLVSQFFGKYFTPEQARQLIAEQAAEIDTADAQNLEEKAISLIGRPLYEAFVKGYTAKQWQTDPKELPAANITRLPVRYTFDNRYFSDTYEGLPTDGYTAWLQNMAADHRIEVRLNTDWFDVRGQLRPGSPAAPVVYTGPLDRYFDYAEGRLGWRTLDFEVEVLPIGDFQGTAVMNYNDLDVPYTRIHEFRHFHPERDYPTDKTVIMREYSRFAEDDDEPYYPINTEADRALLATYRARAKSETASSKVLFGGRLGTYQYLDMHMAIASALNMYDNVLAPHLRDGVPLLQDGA

O=C(Nc1ccc(N2CCCC2)cc1)c1cccc(-c2cc3ccccc3oc2=O)c1
IC50 [1]: > 80 µM (inactive) | EC50 (Hexokinase HKDC1): 13.6 µM (active) | EC50 (Hexokinase-1): > 80 µM (inactive)

Cc1nc(N2CCN(C(=O)c3cccs3)CC2)c2c3c(sc2n1)CCCC3
EC50 [2]: > 32 µM (inactive) | EC50 (Cannabinoid receptor 1 [3]): > 32 µM (inactive) | IC50 [4]: > 32 µM (inactive) | IC50 (Cannabinoid receptor 1 [5]): 3.94 µM (active) | IC50 [6]: 4.13 µM (active) | IC50 (Cannabinoid receptor 2 [7]): > 32 µM (inactive) | EC50 (Cannabinoid receptor 2 [8]): > 32 µM (inactive)

COc1ccc(-n2cc3c(-c4cccc(Br)c4)nnc(C)c3n2)cc1
EC50 [2]: > 32 µM (inactive) | EC50 (Cannabinoid receptor 1 [3]): > 32 µM (inactive) | IC50 [4]: > 32 µM (inactive) | IC50 (Cannabinoid receptor 1 [5]): 0.946 µM (active) | IC50 [6]: 8.04 µM (active) | IC50 (Cannabinoid receptor 2 [7]): 5.4 µM (active) | EC50 (Cannabinoid receptor 2 [8]): > 32 µM (inactive)

COc1cc(OC)cc(-c2nnc(SCc3cccc(C(=O)O)c3)o2)c1
IC50 (Coagulation factor XII): > 50 µM (inactive)

Cc1cc2nc3c(=O)n(CCc4ccccc4)c(=O)[nH]c3nc2cc1N
EC50 (Ion channel NompC): 3.55 µM (active) | EC50 (Mucolipin-3): 6.23 µM (active) | EC50 [9]: > 260 µM (inactive) | AC50 [10]: 2.29 µM (active)

CCOC(=O)Cn1c2ccc(F)cc2c2nc(C)sc21
EC50 (Hexokinase HKDC1): 59.1 µM (inactive) | EC50 (Hexokinase-1): 56.2 µM (inactive) | IC50 (cells): 14.2 µM (active)

COc1ccc2[nH]c3c(NCCC4=CCCCC4)ncnc3c2c1
EC50 (Ion channel NompC): > 29.9 µM (inactive) | EC50 (Mucolipin-3): > 29.9 µM (not active) | EC50 (BJ): > 133 µM (inactive)

Brc1ccc(CSc2nnc(-c3ccccn3)n2Cc2ccccc2)cc1
EC50 [11]: 4.06 µM (active)

O=C(c1cn(-c2ccccc2)nc1-c1ccncc1)n1nnc2ccccc21
IC50 (Coagulation factor XII): 0.973 µM (active)
